Results published in article PMC4899947 (Bioorganic & medicinal chemistry letters, 2016).
Each block holds one compound with its values, some of them ahead of it.

Assays:
human mGlu4 = human mGlu4 (Homo sapiens, UniProt Q14833); experiment: Calcium mobilization mGlu4 PAM assay; type: cell-based
[1] = Plasma and brain samples from the oral HIC study; type: in vivo, rat; conditions: rats
[2] = test system: haloperidol-induced catalepsy; experiment: Reversal of haloperidol-induced catalepsy; type: in vivo, rat; conditions: rats; for reversal of haloperidol-induced catalepsy (in words): p.o.
other mGlu receptors = experiment: Selectivity versus the other mGlu receptors

human mGlu4, sequence (Q14833 33-912): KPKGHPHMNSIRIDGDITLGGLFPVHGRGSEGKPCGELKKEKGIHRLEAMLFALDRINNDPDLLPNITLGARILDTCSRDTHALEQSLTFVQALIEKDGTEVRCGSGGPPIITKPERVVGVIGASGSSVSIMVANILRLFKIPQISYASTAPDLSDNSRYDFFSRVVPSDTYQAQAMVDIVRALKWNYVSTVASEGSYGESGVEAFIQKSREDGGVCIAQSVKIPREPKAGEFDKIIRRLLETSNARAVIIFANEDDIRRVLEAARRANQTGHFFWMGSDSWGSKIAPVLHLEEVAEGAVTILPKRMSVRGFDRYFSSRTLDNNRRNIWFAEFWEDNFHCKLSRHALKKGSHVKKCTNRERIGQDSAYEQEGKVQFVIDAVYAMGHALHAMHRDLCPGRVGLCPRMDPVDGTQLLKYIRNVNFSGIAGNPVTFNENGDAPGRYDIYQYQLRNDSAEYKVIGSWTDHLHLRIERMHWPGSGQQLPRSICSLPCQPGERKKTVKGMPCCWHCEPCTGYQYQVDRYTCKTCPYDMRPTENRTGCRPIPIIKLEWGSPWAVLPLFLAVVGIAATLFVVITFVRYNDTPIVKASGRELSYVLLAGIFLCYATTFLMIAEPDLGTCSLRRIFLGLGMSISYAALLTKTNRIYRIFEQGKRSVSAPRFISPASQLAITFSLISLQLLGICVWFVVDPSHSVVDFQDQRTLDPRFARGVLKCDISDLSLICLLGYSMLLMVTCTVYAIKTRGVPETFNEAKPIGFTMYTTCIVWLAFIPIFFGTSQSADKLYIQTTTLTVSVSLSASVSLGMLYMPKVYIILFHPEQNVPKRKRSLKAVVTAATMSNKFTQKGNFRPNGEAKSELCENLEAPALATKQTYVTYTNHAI

Compound: Nc1cccnc1C(=O)Nc1cccc(Cl)c1 [Compound 7]
fold less potent than 6 (human mGlu4; mGlu4 PAM EC50 relative to 6): ~ 7 fold

Compound: CCc1cnc(Oc2ccc(NC(=O)c3ccncc3N)cc2Cl)nc1 [Compound 19]
mGlu4 PAM activity (in words) (human mGlu4): devoid of mGlu4 PAM activity

Compound: CCc1cnc(Oc2ccc(NC(=O)c3nccnc3N)cc2Cl)nc1 [Compound 20]
fold loss of potency relative to 17t (human mGlu4; mGlu4 PAM EC50 relative to 17t): ~ 5 fold

More lines, main results first:

mGlu4 PAM activity (in words) (human mGlu4): good PAM activity | total brain level, fold above the rat mGlu4 PAM EC50 [1]: greater than 2 fold | selectivity versus the other mGlu receptors (other mGlu receptors): excellent selectivity
Compound: Nc1cccnc1C(=O)Nc1ccc(N2C(=O)c3ccccc3C2=O)c(Cl)c1 [Compound 17a, N-(3-chloro-4-(1,3-dioxoisoindolin-2-yl)phenyl)-3-aminopicolinamide]
reversal of haloperidol-induced catalepsy at 1 mg/kg p.o. ([2]; 1 mg/kg p.o., haloperidol 1.5 mg/kg, side-by-side with 6): as efficacious as 6 | reversal of haloperidol-induced catalepsy (in words) ([2]; haloperidol 1.5 mg/kg): robust efficacy

mGlu4 PAM activity (in words) (human mGlu4): good PAM activity
Compound: Cc1cccc2c1C(=O)N(c1ccc(NC(=O)c3ncccc3N)cc1Cl)C2=O [Compound 17d]

mGlu4 PAM activity (in words) (human mGlu4): good PAM activity
Compound: Nc1cccnc1C(=O)Nc1ccc(N2Cc3ccccc3C2=O)c(Cl)c1 [Compound 17e]

mGlu4 PAM activity (in words) (human mGlu4): devoid of PAM activity
Compound: Nc1cccnc1C(=O)Nc1ccc(N2Cc3ccc(Cl)cc3C2=O)c(Cl)c1 [Compound 17g]

mGlu4 PAM activity (in words) (human mGlu4): good PAM activity
Compound: COc1ccc2c(c1)C(=O)N(c1ccc(NC(=O)c3ncccc3N)cc1Cl)C2 [Compound 17h]

total brain level, fold above the rat mGlu4 PAM EC50 [1]: greater than 3.5 fold | selectivity versus the other mGlu receptors (other mGlu receptors): excellent selectivity
Compound: CCc1cnc(Oc2ccc(NC(=O)c3ncccc3N)cc2Cl)nc1 [Compound 17t]
reversal of haloperidol-induced catalepsy at 3 mg/kg p.o. ([2]; 3 mg/kg p.o., comparable to 6 at 10 mg/kg p.o.): robust reversal | reversal of haloperidol-induced catalepsy (in words) ([2]; haloperidol 1.5 mg/kg): more efficacious than 6
